In PubChem BioAssay (NCI):
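Each compound was tested at five concentrations against cells in 96-well plates for 48 hours. Definition used: TGI = concentration required for complete inhibition of growth.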

Experiments:
Assay in all cases: growth of human tumour cells (NCI), 48 h
RPMI-8226 leukemia = test system: RPMI-8226 leukemia
M14 melanoma = test system: M14 melanoma
LOX IMVI melanoma = test system: LOX IMVI melanoma
XF 498 CNS = test system: XF 498 CNS
SF-295 CNS = test system: SF-295 CNS
HOP-18 NSCLC = test system: HOP-18 NSCLC
CCRF-CEM leukemia = test system: CCRF-CEM leukemia
OVCAR-8 ovarian = test system: OVCAR-8 ovarian
HOP-62 NSCLC = test system: HOP-62 NSCLC
U251 CNS = test system: U251 CNS
786-0 renal = test system: 786-0 renal
HT29 colon = test system: HT29 colon
NCI-H23 lung = test system: NCI-H23 lung
NCI-H460 lung = test system: NCI-H460 lung
COLO 205 colon = test system: COLO 205 colon
HCT-15 colon = test system: HCT-15 colon
UO-31 renal = test system: UO-31 renal
EKVX NSCLC = test system: EKVX NSCLC
SN12C renal = test system: SN12C renal
SK-OV-3 ovarian = test system: SK-OV-3 ovarian
DMS 273 small cell lung = test system: DMS 273 small cell lung
M19-MEL melanoma = test system: M19-MEL melanoma
DMS 114 small cell lung = test system: DMS 114 small cell lung
TK-10 renal = test system: TK-10 renal
CAKI-1 renal = test system: CAKI-1 renal
MALME-3M melanoma = test system: MALME-3M melanoma
HCC-2998 colon = test system: HCC-2998 colon
HL-60(TB) leukemia = test system: HL-60(TB) leukemia
K-562 leukemia = test system: K-562 leukemia
SNB-78 CNS = test system: SNB-78 CNS
SNB-75 CNS = test system: SNB-75 CNS
ACHN renal = test system: ACHN renal
OVCAR-4 ovarian = test system: OVCAR-4 ovarian
IGROV1 ovarian = test system: IGROV1 ovarian
RXF 393 renal = test system: RXF 393 renal
HOP-92 NSCLC = test system: HOP-92 NSCLC
OVCAR-3 ovarian = test system: OVCAR-3 ovarian
SW-620 colon = test system: SW-620 colon
DLD-1 colon = test system: DLD-1 colon
A549 NSCLC = test system: A549 NSCLC
SK-MEL-28 melanoma = test system: SK-MEL-28 melanoma
UACC-62 melanoma = test system: UACC-62 melanoma
LXFL 529 NSCLC = test system: LXFL 529 NSCLC
KM20L2 colon = test system: KM20L2 colon
MOLT-4 leukemia = test system: MOLT-4 leukemia
SF-539 CNS = test system: SF-539 CNS
HCT-116 colon = test system: HCT-116 colon
SK-MEL-5 melanoma = test system: SK-MEL-5 melanoma
RXF-631 renal = test system: RXF-631 renal
KM12 colon = test system: KM12 colon
SNB-19 CNS = test system: SNB-19 CNS
A498 renal = test system: A498 renal
UACC-257 melanoma = test system: UACC-257 melanoma
NCI-H522 lung = test system: NCI-H522 lung
OVCAR-5 ovarian = test system: OVCAR-5 ovarian
SF-268 CNS = test system: SF-268 CNS
SK-MEL-2 melanoma = test system: SK-MEL-2 melanoma

CC(=O)Oc1cc(OC(C)=O)c(OC(C)=O)c2c1CC1C(=O)C3(CCc4ccccc43)C(=O)C1C2 (stereo unspecified)
TGI (RPMI-8226 leukemia): 13.1 µM | TGI (M14 melanoma): > 100 µM | TGI (LOX IMVI melanoma): 26.2 µM | TGI (XF 498 CNS): 27.9 µM | TGI (SF-295 CNS): 17.3 µM | TGI (HOP-18 NSCLC): 43.6 µM | TGI (CCRF-CEM leukemia): 75.9 µM | TGI (OVCAR-8 ovarian): 36.7 µM | TGI (HOP-62 NSCLC): 50.8 µM | TGI (U251 CNS): 29.2 µM | TGI (786-0 renal): 26.4 µM | TGI (HT29 colon): 40.9 µM | TGI (NCI-H23 lung): 40.2 µM | TGI (NCI-H460 lung): 28.3 µM | TGI (COLO 205 colon): 37.9 µM | TGI (HCT-15 colon): 39.5 µM | TGI (UO-31 renal): 36.6 µM | TGI (EKVX NSCLC): 37.6 µM | TGI (SN12C renal): 31 µM | TGI (SK-OV-3 ovarian): 58.8 µM | TGI (DMS 273 small cell lung): 34.9 µM | TGI (M19-MEL melanoma): 30.1 µM | TGI (DMS 114 small cell lung): 29.4 µM | TGI (TK-10 renal): 31.7 µM | TGI (CAKI-1 renal): 38.3 µM | TGI (MALME-3M melanoma): 20.1 µM | TGI (HCC-2998 colon): 25.2 µM | TGI (HL-60(TB) leukemia): 22.4 µM | TGI (K-562 leukemia): 28.1 µM | TGI (SNB-78 CNS): 58.2 µM | TGI (SNB-75 CNS): 16.7 µM | TGI (ACHN renal): 26.2 µM | TGI (OVCAR-4 ovarian): 24.1 µM | TGI (IGROV1 ovarian): 38.6 µM | TGI (RXF 393 renal): 28.6 µM | TGI (HOP-92 NSCLC): > 100 µM | TGI (OVCAR-3 ovarian): 16.6 µM | TGI (SW-620 colon): 42.7 µM | TGI (DLD-1 colon): 35.2 µM | TGI (A549 NSCLC): 44.6 µM | TGI (SK-MEL-28 melanoma): 36.5 µM | TGI (UACC-62 melanoma): 31.3 µM | TGI (LXFL 529 NSCLC): 28 µM | TGI (KM20L2 colon): 48.3 µM

Cc1cc2c(C=O)[nH]nc2c(C#N)c1C
TGI (RPMI-8226 leukemia): > 100 µM | TGI (M14 melanoma): > 100 µM | TGI (LOX IMVI melanoma): > 100 µM | TGI (MOLT-4 leukemia): > 100 µM | TGI (SF-295 CNS): > 100 µM | TGI (CCRF-CEM leukemia): > 100 µM | TGI (SF-539 CNS): 61.4 µM | TGI (OVCAR-8 ovarian): > 100 µM | TGI (HOP-62 NSCLC): > 100 µM | TGI (HCT-116 colon): > 100 µM | TGI (SK-MEL-5 melanoma): > 100 µM | TGI (U251 CNS): > 100 µM | TGI (RXF-631 renal): > 100 µM | TGI (786-0 renal): > 100 µM | TGI (HT29 colon): > 100 µM | TGI (NCI-H23 lung): > 100 µM | TGI (NCI-H460 lung): > 100 µM | TGI (COLO 205 colon): > 100 µM | TGI (HCT-15 colon): > 100 µM | TGI (UO-31 renal): > 100 µM | TGI (EKVX NSCLC): > 100 µM | TGI (SN12C renal): 78.6 µM | TGI (SK-OV-3 ovarian): > 100 µM | TGI (KM12 colon): > 100 µM | TGI (DMS 273 small cell lung): > 100 µM | TGI (M19-MEL melanoma): > 100 µM | TGI (DMS 114 small cell lung): 99.3 µM | TGI (TK-10 renal): > 100 µM | TGI (SNB-19 CNS): > 100 µM | TGI (MALME-3M melanoma): > 100 µM | TGI (HCC-2998 colon): > 100 µM | TGI (K-562 leukemia): > 100 µM | TGI (SNB-78 CNS): > 100 µM | TGI (SNB-75 CNS): 40.9 µM | TGI (ACHN renal): > 100 µM | TGI (A498 renal): > 100 µM | TGI (UACC-257 melanoma): > 100 µM | TGI (OVCAR-4 ovarian): > 100 µM | TGI (NCI-H522 lung): 22.7 µM | TGI (IGROV1 ovarian): > 100 µM | TGI (OVCAR-5 ovarian): > 100 µM | TGI (HOP-92 NSCLC): 99.4 µM | TGI (SF-268 CNS): > 100 µM | TGI (OVCAR-3 ovarian): > 100 µM | TGI (SW-620 colon): > 100 µM | TGI (DLD-1 colon): > 100 µM | TGI (A549 NSCLC): > 100 µM | TGI (SK-MEL-28 melanoma): > 100 µM | TGI (UACC-62 melanoma): > 100 µM | TGI (LXFL 529 NSCLC): > 100 µM | TGI (KM20L2 colon): > 100 µM | TGI (SK-MEL-2 melanoma): > 100 µM
